# From the supplement of paper PMC10307832
# Assays:
# Assay in all cases: relative viability (nuclei count vs DMSO), 5 days (fraction); higher = more cells survive
# [1] = compound: C1/C(=C\C2=CC=CS2)/C(=O)/C(=C/C3=CC=CS3)/C1 + Cc1nc(NC(=O)N2CCC[C@H]2C(N)=O)sc1-c1ccnc(C(C)(C)C(F)(F)F)c1 [Alpelisib] (partner 2 µM)
# In short: (§1)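 Lung cancer cell lines in 1536-well plates were dosed by pin tool the day after seeding, either with one drug alone or with a fixed anchor-drug dose plus five library-drug doses (not always all listed) in √10 steps. After 5 days, cells were fixed and their nuclei stained in one step (final 0.05% Triton X-100, 1% formaldehyde, 1 ug/ml Hoechst), then counted on 4× images. Relative viability is the nuclei count in treated wells divided by that in vehicle wells. Values are medians of duplicate plates.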
# [2] = compound: C1=CC(=CC=C1C2=CC(=C(S2)NC(=O)N)C(=O)N)F [TPCA-1] + Nc1ncn([C@H]2C[C@H](O)[C@@H](CO)O2)c(=O)n1 [Decitabine] (partner 2 µM)
# In short: as §1
# [3] = compound: C[C@]12O[C@H](C[C@]1(O)CO)n1c3ccccc3c3c4c(c5c6ccccc6n2c5c31)CNC4=O [Lestaurtinib] + CS(=O)(=O)N1CCN(Cc2cc3nc(-c4cccc5[nH]ncc45)nc(N4CCOCC4)c3s2)CC1 [Pictilisib] (partner 1 µM)
# In short: as §1
# [4] = compound: C[C@]12O[C@H](C[C@]1(O)CO)n1c3ccccc3c3c4c(c5c6ccccc6n2c5c31)CNC4=O [Lestaurtinib] + N=C(N)NC(=N)NCCc1ccccc1 [Phenformin] (partner 250 µM)
# In short: as §1
Cell Line,relative viability ([1]; first compound 0.2 µM),relative viability ([1]; first compound 0.6325 µM),relative viability ([1]; first compound 2 µM),relative viability ([1]; first compound 6.325 µM),relative viability ([1]; first compound 20 µM),relative viability ([2]; first compound 0.04 µM),relative viability ([2]; first compound 0.1265 µM),relative viability ([2]; first compound 0.4 µM),relative viability ([2]; first compound 1.265 µM),relative viability ([2]; first compound 4 µM),relative viability ([3]; first compound 0.005 µM),relative viability ([3]; first compound 0.01581 µM),relative viability ([3]; first compound 0.05 µM),relative viability ([3]; first compound 0.1581 µM),relative viability ([3]; first compound 0.5 µM),relative viability ([4]; first compound 0.005 µM),relative viability ([4]; first compound 0.01581 µM),relative viability ([4]; first compound 0.05 µM),relative viability ([4]; first compound 0.1581 µM),relative viability ([4]; first compound 0.5 µM)
PC-3 [JPC-3],0.994,0.995,0.998,0.97,1.05,0.862,0.916,0.838,0.813,0.818,0.77,0.736,0.555,0.606,0.408,0.434,0.504,0.352,0.477,0.386
CAL-12T,1.33,1.15,0.95,0.856,1.13,,,,,,0.392,0.716,0.388,0.413,0.292,0.488,0.622,0.375,0.32,0.189
COR-L 105,1.36,1.02,0.902,0.728,0.913,0.711,0.622,0.735,0.612,0.537,0.488,0.405,0.288,0.263,0.212,0.465,0.476,0.371,0.353,0.238
NCI-H2347,1.1,1.07,0.963,0.952,1.15,0.578,0.551,0.664,0.641,0.619,0.692,0.996,0.485,0.472,0.532,0.304,0.448,0.316,0.309,0.39
NCI-H2126,0.785,0.833,0.805,0.69,0.786,0.582,0.577,0.632,0.614,0.514,0.493,0.525,0.415,0.449,0.411,0.525,0.565,0.482,0.412,0.326
NCI-H838,1.03,0.986,0.939,0.848,0.974,0.466,0.442,0.532,0.44,0.44,0.492,0.479,0.378,0.309,0.169,0.508,0.543,0.475,0.227,0.131
A549,0.608,0.867,0.746,0.483,0.73,0.219,0.423,0.284,0.182,0.102,0.61,0.588,0.184,0.251,0.0856,0.204,0.141,0.16,0.1,0.045
NCI-H2342,,,,,,0.71,0.653,0.766,0.712,0.883,,,,,,0.545,0.656,0.551,0.652,0.613
